From PubChem BioAssay (NCI)
Values joined by “and” are separate entries in the source; they are usually repeats but may differ in a detail not shown here. Equal entries are not always repeated.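 In this assay, cells in 96-well plates receive the compound at five concentrations for 48 hours. Endpoints are linearly interpolated between the surrounding concentrations. At the GI50, growth is halved. TGI is the concentration that stops growth completely.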

Assays:
Assay in all cases: NCI tumour cell line growth inhibition, 48 h
KM12 colon = test system: KM12 colon
A498 renal = test system: A498 renal
CCRF-CEM leukemia = test system: CCRF-CEM leukemia
OVCAR-8 ovarian = test system: OVCAR-8 ovarian
CAKI-1 renal = test system: CAKI-1 renal
IGROV1 ovarian = test system: IGROV1 ovarian
UACC-62 melanoma = test system: UACC-62 melanoma
U251 CNS = test system: U251 CNS
SK-OV-3 ovarian = test system: SK-OV-3 ovarian
HOP-92 NSCLC = test system: HOP-92 NSCLC

Row | SMILES | GI50 (KM12 colon) [µM] | TGI (KM12 colon) [µM] | GI50 (A498 renal) [µM] | TGI (A498 renal) [µM] | GI50 (CCRF-CEM leukemia) [µM] | TGI (CCRF-CEM leukemia) [µM] | GI50 (OVCAR-8 ovarian) [µM] | TGI (OVCAR-8 ovarian) [µM] | GI50 (CAKI-1 renal) [µM] | TGI (CAKI-1 renal) [µM] | GI50 (IGROV1 ovarian) [µM] | TGI (IGROV1 ovarian) [µM] | GI50 (UACC-62 melanoma) [µM] | TGI (UACC-62 melanoma) [µM] | GI50 (U251 CNS) | TGI (U251 CNS) | GI50 (SK-OV-3 ovarian) [µM] | TGI (SK-OV-3 ovarian) [µM] | TGI (HOP-92 NSCLC) [µM] | GI50 (HOP-92 NSCLC) [µM]
1 | O=C1OCC2=C1C(c1cccc(Br)c1)c1cc3c(cc1N2CCO)CCC3 (stereo not given) | 0.0329 | 1.04 | 0.0155 | 0.199 | 0.148 | 10 | 0.14 | 0.852 | 0.22 | 8.15 | 0.157 | 10.7 | 0.0223 | 8.18 | 0.108 µM | 1.55 µM | 0.102 | 1.58 |  | 
2 | C1=CC(N(c2ccccc2)C2C=CCCC2)CCC1 (stereo not given) |  |  |  | > 100 |  | > 100 |  | > 100 |  | > 100 |  | > 100 |  | > 100 |  | > 100 µM |  | > 100 | > 100 | 
3 | CN(C)C(n1cc2c(c1)-c1ccc(Cl)cc1C(c1ccccc1F)=NC2)n1cc2c(c1)-c1ccc(Cl)cc1C(c1ccccc1F)=NC2 |  |  |  | > 100 |  | > 100 |  | > 100 |  | > 100 |  | > 100 |  | > 100 |  | > 100 µM |  | > 100 |  | 
4 | CCC(C)COC(=O)c1ccc(N=Cc2ccc(C=Nc3ccc(C(=O)OCC(C)CC)cc3)cc2)cc1 (stereo not given) |  |  |  | > 100 |  | > 100 |  | > 100 |  | > 100 |  | > 100 |  | > 100 |  | > 100 µM |  | > 100 | > 100 | 
5 | CCCc1nc(NC#N)nc(C(=O)Nc2ccccc2)c1CC |  | > 100 |  | > 100 |  |  |  | > 100 |  | > 100 |  | > 100 |  | > 100 |  | > 100 µM |  |  | > 100 | 
6 | COc1cc(NCc2ccc3nc(N)nc(N)c3c2C)cc(OC)c1OC (tested in a mixture with another compound) |  | 46.6 |  | 49.5 |  | 86 |  |  |  |  |  | 68.6 |  |  | 0.00227 µM and 0.016 µM | 88.5 µM and 48.7 µM | 0.0189 |  |  | 0.0233
7 | CCOC(=O)Nc1ccc(-c2nc(-c3cccc(OCCN4CCOCC4)c3)c(-c3ccnc(Br)c3)[nH]2)cc1 | 3.19 | > 100 | 1.66 | 5.66 | 2.94 | > 100 | 3.73 | > 100 |  |  | 3.65 | > 100 | 2.26 | 7.14 | 2.75 µM | > 100 µM | 2.66 | 6.25 | 7.79 | 2.77
8 | Nc1nc(/C=C\c2ccc([N+](=O)[O-])s2)nc(N2CCCC2)n1 | 1.22 | 6.51 | 16.6 | 34.6 | 1.57 | 5.23 | 3.49 | 22.5 | 7.1 | 24.6 | 4.72 | 17.2 | 1.43 | 8.67 |  |  | 9.25 | 30.4 | 18.6 | 6.73
9 | Cc1nn(-c2ccc(Cl)cc2)c2nc3c(nc12)C(=O)c1ccccc1-3 | > 100 | > 100 | 31.7 | > 100 | > 100 | > 100 |  |  | > 100 | > 100 | > 100 | > 100 | > 100 | > 100 | > 100 µM | > 100 µM | 47.3 | > 100 |  | 
10 | [Cl][Hg][c]1cc[c]([Hg][Cl])o1 | 10.6 | 24.4 | 20 | 34.2 | 0.295 | 8.75 | 3.39 | 34.6 |  |  | 1.93 | 10.1 | 3.46 | 16.2 | 0.737 µM | 2.46 µM | 15 | 77.6 | 3.52 | 1.77
11 | CC(C)Oc1ccc2cc(-c3nn(CC4CCNCC4)c4ncnc(N)c34)ccc2c1 | 12.6 | 26.4 | 14.2 | 28.2 | 3.98 | 16.9 |  |  | 10.9 | 22.9 | 11.1 | 24.8 | 6.41 | 20.4 | 9.02 µM | 21.7 µM | 13.8 | 27.9 | 20.8 | 6.37
12 | CCC[CH2][Sn]([Cl])([CH2]CCC)[CH2]CCC | 0.123 | 0.264 |  |  | 0.0288 | 0.225 | 0.145 | 0.287 | 0.167 | 1.23 | 0.169 | 0.625 | 0.135 | 0.373 | 0.113 µM | 0.236 µM | 0.181 | 0.56 | 0.188 | 0.0452
13 | Cc1cc(N(CCC#N)CCC#N)ccc1N=Nc1ccc(C(=O)O)cc1 |  | > 100 |  | > 100 |  |  |  | > 100 |  | > 100 |  | > 100 |  | > 100 |  | > 100 µM |  | > 100 |  | 
14 | CC1c2c(Cl)nc3ccccc3c2Oc2c1c(Cl)nc1ccccc21 |  | > 100 |  | > 100 |  | > 100 |  | > 100 |  |  |  | > 100 |  |  |  | > 100 µM |  | > 100 | > 100 | 
15 | CCOC(=O)C(=[N+]=[N-])[Si](C)(C)C |  | > 100 |  | > 100 |  |  |  | > 100 |  | > 100 |  | > 100 |  | > 100 |  | 69.2 µM |  |  | > 100 | 
16 | C1CN2CCN3CCN4CCN1[P+]243 |  | > 100 |  | > 100 |  | > 100 |  | > 100 |  |  |  | > 100 |  | > 100 |  | > 100 µM |  | > 100 |  | 
17 | C#C[C@]1(O)CCC2C3CCc4cc(O)ccc4C3CC[C@@]21C (stereo not given in full) | 3.14 | 13.9 | 4.62 | 18.3 |  |  | 5.8 | 37.2 | 9.15 | 87 | 11.2 | 52.4 | 4.12 | 22.8 | 4.09 µM | 17.5 µM | 3.45 | 49.6 | 19.9 | 5.91
18 | COc1ccc(CC2NCCc3c2[nH]c2ccccc32)cc1 (stereo not given) |  | > 100 |  | > 100 |  | > 100 |  | > 100 |  |  |  | > 100 |  | > 100 |  | > 100 µM |  | > 100 | 58.6 | 
